Reference: patent EP0993437B1, “2-(4-BROMO OR 4-IODO PHENYLAMINO) BENZOIC ACID DERIVATIVES AND THEIR USE AS MEK INHIBITORS” (Warner-Lambert Company LLC, priority 1997, dated 1999)
Where a name gives a salt, the structure may show the parent alone.

Tests used:
MAP kinase = test: Whole cell MAP kinase assay (In Vivo, Cell Culture); type: cell-based
Description: Cells were then serum-deprived overnight. Cells were exposed to the desired concentrations of compound or vehicle (DMSO) for 30 minutes, followed by addition of a growth factor, for example, PDGF (100 ng/mL). After a 5-minute treatment with the growth factor, cells were washed with PBS, then lysed in a buffer consisting of 70 mM NaCl, 10 mM HEPES (pH 7.4), 50 mM glycerol phosphate, and 1% Triton X-100. Lysates were clarified by centrifugation at 13,000 × g for 10 minutes. Five micrograms of the resulting supernatants were incubated with 10 µg microtubule associated protein-2 (Map2) for 15 minutes at 30°C in a final volume of 25 µL containing 50 mM Tris (pH 7.4), 10 mM MgCl2, 2 mM EGTA and 30 µM [γ-^32P]ATP, Reactions were terminated by addition of Laemmli sample buffer.

MEK = test: Cascade assay for inhibitors of the MAP kinase pathway (In Vitro); type: biochemical
Description: Incorporation of ^32P into myelin basic protein (MBP) was assayed in the presence of a glutathione S-transferase fusion protein containing p44MAP kinase (GST-MAPK) and a glutathione S-transferase fusion protein containing p45MEK (GST-MEK). The assay solution contained 20 mM HEPES, pH 7.4, 10 mM MgCl2, 1-mM MnCl2, 1 mM EGTA, 50 µM [γ-^32P]ATP, 10 µg GST-MEK, 0.5 µg GST-MAPK and 40 µg MBP in a final volume of 100 µL. […] Compounds were assessed at 10 µM for ability to inhibit incorporation of ^32P.
To ascertain whether compounds were inhibiting GST-MEK or GST MAPK, two additional protocols were employed. In the first protocol, compounds were added to tubes containing GST-MEK, followed by addition of GST-MAPK, MBP and [γ-^32P]ATP.

| IC50 (MEK) [nM] | Molecule | further results |
| --- | --- | --- |
| 1370 | Cc1cc(I)ccc1Nc1ccc([N+](=O)[O-])cc1-c1nnn[nH]1 [Example 209, [4-Nitro-2-(1H-tetrazol-5-yl)phenyl]-(4-iodo-2-methyl-phenyl)-amine] | – |
| 34 | O=C(O)c1cc([N+](=O)[O-])c(Nc2ccc(I)cc2Cl)c(F)c1Nc1ccc(I)cc1Cl [Example 212, 2,4-Bis-(2-chloro-4-iodo-phenylamino)-3-fluoro-5-nitro-benzoic acid] | – |
| 62 | Cc1cc(I)ccc1Nc1cc(F)c([N+](=O)[O-])cc1C(=O)O [Example 213, 4-Fluoro-2-(4-iodo-2-methyl-phenylamino)-5-nitro-benzoic acid] | – |
| 31 | O=C(O)c1ccc([N+](=O)[O-])cc1Nc1ccc(I)cc1Cl [Example 215, 2-(2-Chloro-4-iodo-phenylamino)-4-nitro-benzoic acid] | – |
| 1000 | O=C(O)c1ccc(F)cc1Nc1ccc(I)cc1I [Example 216, 2-(2,4-Diiodo-phenylamino)-4-fluoro-benzoic acid] | – |
| 51 | O=C(O)c1ccc(F)cc1Nc1ccc(I)cc1F [Example 218, 4-Fluoro-2-(2-fluoro-4-iodo-phenylamino)-benzoic acid] | – |
| 108 | O=C(O)c1ccc(F)cc1Nc1ccc(I)cc1Cl [Example 219, 2-(2-Chloro-4-iodo-phenylamino)-4-fluoro-benzoic acid] | – |
| 2 | COC(=O)c1c(F)c(F)c(N2CCN(C)CC2)c(F)c1Nc1ccc(I)cc1C [Example 221, 2,3,5-Trifluoro-6-(4-iodo-2-methyl-phenylamino)-4-(4-methyl-piperazin-1-yl)-benzoic acid methyl ester dihydrofluoride salt] | – |
| 85 | Cc1cc(I)ccc1Nc1c(C(=O)NN2CCN(C)CC2)cc(Br)c(F)c1F [Example 222, 5-Bromo-3,4-difluoro-2-(4-iodo-2-methyl-phenylamino)-N-(4-methyl-piperazin-1-yl)-benazmide] | – |
| 43 | Cc1cc(I)ccc1Nc1c(C(=O)NN(C)C)cc(Br)c(F)c1F [Example 223, 5-Bromo-3,4-difluoro-2-(4-iodo-2-methyl-phenylamino)-benzoic acid N',N'-dimethyl-hydrazide] | – |
| 28 | Cc1cc(I)ccc1Nc1cc(F)ccc1C(=O)NN [Example 224, 4-Fluoro-2-(4-iodo-2-methyl-phenylamino)-benzoic acid hydrazide] | – |

Second part, the molecule before the results:

| Molecule | IC50 (MEK) [nM] | further results |
| --- | --- | --- |
| Cc1cc(I)ccc1Nc1c(C(=O)O)cc(F)c(F)c1F [Example 2, 3,4,5-Trifluoro-2-(4-iodo-2-methyl-phenylamino)-benzoic acid] | 14 | IC50 (MAP kinase): 3000 nM |
| Cc1cc(I)ccc1Nc1c(C(=O)O)ccc(F)c1F [Example 3, 3,4-Difluoro-2-(4-iodo-2-methyl-phenylamino)-benzoic acid] | 11.1 | IC50 (MAP kinase): 10000 nM |
| Cc1cc(I)ccc1Nc1c(C(=O)O)cc(Br)c(F)c1F [Example 4, 5-Bromo-3,4-difluoro-2-(4-iodo-2-methyl-phenylamino)-benzoic acid] | 5 | IC50 (MAP kinase): 1000 nM |
| Cc1cc(I)ccc1Nc1ccccc1C(=O)O [Example 19, 2-(4-Iodo-2-methyl-phenylamino)-benzoic acid] | 524 | inhibition at 30 µM (MAP kinase): 50% |
| Cc1cc(I)ccc1Nc1c(F)cc(C(=O)O)c(F)c1F [Example 22, 2,3 ,5 -Trifluoro-4-(4-iodo-2-methyl-phenylamino)-benzoic acid] | 1580 | inhibition at 30 µM (MAP kinase): 30% |
| Cc1cc(I)ccc1Nc1cccc(F)c1C(=O)O [Example 26, 2-Fluoro-6-(4-iodo-2-methyl-phenylamino)-benzoic acid] | 2610 | inhibition at 30 µM (MAP kinase): 50% |
| Cc1cc(I)ccc1Nc1cc([N+](=O)[O-])ccc1C(=O)O [Example 30, 2-(4-Iodo-2-methyl-phenylamino)-4-nitro-benzoic acid] | – | IC50 (MAP kinase): 10000 nM; In Vitro % Inhibition (MEK; compounds assessed at 10 µM): 105% |
| Cc1cc(I)ccc1Nc1cc(F)ccc1CO [Example 49, 4-Fluoro-2-(4-iodo-2-methyl-phenylamino)-benzyl alcohol] | 418 | IC50 (MAP kinase): 3000 nM |
| Cc1cc(I)ccc1Nc1ccc(Cl)cc1C(=O)NCCO [Example 187, 5-Chloro-N-(2-hydroxy-ethyl)-2-(4-iodo-2-methyl-phenylamino)-benzamide] | 561 | – |
| Cc1cc(I)ccc1Nc1ccc(Br)cc1C(=O)NCCO [Example 188, 5-Bromo-N-(2-hydroxy-ethyl)-2-(4-iodo-2-methyl-phenylamino)-benzamide] | 771 | – |
| Cc1cc(I)ccc1Nc1ccc([N+](=O)[O-])cc1C(=O)N(C)c1ccccc1 [Example 189, 2-(4-Iodo-2-methyl-phenylamino)-N-methyl-5-nitro-N-phenyl-benzamide] | 859 | – |
| Cc1cc(I)ccc1Nc1ccc(Cl)cc1C(=O)N(C)c1ccccc1 [Example 190, 5-Chloro-2-(4-iodo-2-methyl-phenylamino)-N-methyl-N-phenyl-benzamide] | 921 | – |
| Cc1cc(I)ccc1Nc1ccc(I)cc1C(=O)NCCO [Example 191, N-(2-Hydroxy-ethyl)-5-iodo-2-(4-iodo-2-methyl-phenylamino)-benzamide] | 1360 | – |
| Cc1cc(I)ccc1Nc1ccc(Cl)cc1C(=O)NC1CC1 [Example 192, 5-Chloro-N-cyclopropyl-2-(4-iodo-2-methyl-phenylamino)-benzamide] | 1800 | – |
| C=CCNC(=O)c1cc(Cl)ccc1Nc1ccc(I)cc1C [Example 193, N-Allyl-5-chloro-2-(4-iodo-2-methyl-phenylamino)-benzamide] | 2900 | – |
| Cc1cc(I)ccc1Nc1ccc(F)cc1C(=O)N(C)c1ccccc1 [Example 194, 5-Fluoro-2-(4-iodo-2-methyl-phenylamino)-N-methyl-N-phenyl-benzamide] | 4950 | – |
| Cc1cc(I)ccc1Nc1ccccc1-c1nnn[nH]1 [Example 208, (4-Iodo-2-methyl-phenyl)-[2-(1H-tetrazol-5-yl)-phenyl]amine] | 1220 | – |
| Nc1c([N+](=O)[O-])cc(C(=O)O)c(Nc2ccc(I)cc2Cl)c1F [Example 211, 4-Amino-2-(2-chloro-4-iodo-phenylamino)-3-fluoro-5-nitro-benzoic acid] | > 100 | – |
| O=C(O)c1ccc(F)c(F)c1Nc1c(F)cc(I)cc1F [Example 214, 2-(2,6-Difluoro-4-iodo-phenylamino)-3,4-difluoro-benzoic acid] | 303 | – |
| O=C(O)c1ccc(F)cc1Nc1ccc(I)cc1Br [Example 217, 2-(2-Bromo-4-iodo-phenylamino)-4-fluoro-benzoic acid] | > 1000 | – |
| N-(2,3-Dihydroxy-propyl)-3,4-difluoro-2-(4-iodo-2-methyl-phenylamino)-benzamide [Example 54] | 158 | – |
| N-(2,3-Dihydroxy-propyl)-4-fluoro-2-(4-iodo-2-methyl-phenylamino)-benzamide [Example 57] | 399 | – |
